Biological target: T1, LPA1 (Homo sapiens, UniProt Q92633)
T1 construct: ProLink (PK) beta-galactosidase enzyme-fragment tag; host or cells: CHO-K1
Test: LPA1 calcium flux assay (LPA1 functional antagonist assay)
Format: cell-based
Conditions: PathHunter CHO-K1 EDG2 β-Arrestin cell line; calcium indicator dye; stimulated with EC80 concentration of LPA; FLIPR Tetra
Description: Following overnight culture, cells were loaded with calcium indicator dye from the HitHunter Calcium No WashPLUS Assay kit (Eurofins DiscoverX Corporation, Cat #93-0091) for 45 minutes at 37° C. […] After compound addition, assay plates were equilibrated to room temperature for 30 minutes. […] IC50 values were determined by Chemical and Biological Information System from ChemInnovation Software, Inc. The compounds of this invention were tested for their activity to inhibit LPA1 as determined in an LPA1 functional antagonist assay as described herein.

T1 sequence (Q92633 whole entry, the tested form may be a part): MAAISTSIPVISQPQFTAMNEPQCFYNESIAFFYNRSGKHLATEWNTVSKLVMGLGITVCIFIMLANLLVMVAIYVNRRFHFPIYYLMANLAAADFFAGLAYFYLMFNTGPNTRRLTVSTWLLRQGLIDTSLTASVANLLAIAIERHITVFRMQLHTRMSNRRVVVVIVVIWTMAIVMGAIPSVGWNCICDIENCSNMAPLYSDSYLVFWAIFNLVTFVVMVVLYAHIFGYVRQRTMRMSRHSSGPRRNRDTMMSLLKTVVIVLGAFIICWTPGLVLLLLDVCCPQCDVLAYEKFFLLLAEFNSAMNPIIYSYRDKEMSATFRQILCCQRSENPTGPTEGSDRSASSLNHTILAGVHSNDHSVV

| IC50 | Structure (SMILES) |
| --- | --- |
| 100 to 500 nM | CCCc1ccc(=O)n(Cc2c(-c3ccc(N4C[C@@H](F)C[C@H](CC(=O)O)C4)c(CC)n3)nnn2C)c1 (single isomer, unassigned) [Example 45, 2-((3S,5S) or (3R,5R)-1-(2-ethyl-6-(1-methyl-5-((2-oxo-5-propylpyridin-1(2H)-yl)methyl)-1H-1,2,3-triazol-4-yl)pyridin-3-yl)-5-fluoropiperidin-3-yl)acetic acid] |
| > 5000 nM | CCCc1ccc(=O)n(Cc2c(-c3ccc(N4C[C@H](F)C[C@@H](CC(=O)O)C4)c(CC)n3)nnn2C)c1 (single isomer, unassigned) [Example 46, 2-((3R,5R) or (33,5S)-1-(2-ethyl-6-(1-methyl-5-((2-oxo-5-propylpyridin-1(2H)-yl)methyl)-1H-1,2,3-triazol-4-yl)pyridin-3-yl)-5-fluoropiperidin-3-yl)acetic acid] |
| 500 to 5000 nM | CCCc1ccc(=O)n(Cc2c(-c3ccc(N4CCCC(CC(=O)O)C4=O)c(CC)n3)nnn2C)c1 (single isomer, unassigned) [Example 52, (R) or (S)-2-(1-(2-ethyl-6-(1-methyl-5-((2-oxo-5-propylpyridin-1(2H)-yl)methyl)-1H-1,2,3-triazol-4-yl)pyridin-3-yl)-2-oxopiperidin-3-yl)acetic acid] |
| > 5000 nM | CCCc1ccc(=O)n(Cc2c(-c3ccc(N4CCCC(CC(=O)O)C4=O)c(CC)n3)nnn2C)c1 (single isomer, unassigned) [Example 53, (S) or (R)-2-(1-(2-ethyl-6-(1-methyl-5-((2-oxo-5-propylpyridin-1(2H)-yl)methyl)-1H-1,2,3-triazol-4-yl)pyridin-3-yl)-2-oxopiperidin-3-yl)acetic acid] |
| > 5000 nM | CCCc1ccc(=O)n(Cc2c(-c3ccc(N4CC(CC(=O)O)CCC4=O)c(CC)n3)nnn2C)c1 (single isomer, unassigned) [Example 54, (R) or (S)-2-(1-(2-ethyl-6-(1-methyl-5-((2-oxo-5-propylpyridin-1(2H)-yl)methyl)-1H-1,2,3-triazol-4-yl)pyridin-3-yl)-6-oxopiperidin-3-yl)acetic acid] |
| > 5000 nM | CCCc1ccc(=O)n(Cc2c(-c3ccc(N4CC(CC(=O)O)CCC4=O)c(CC)n3)nnn2C)c1 (single isomer, unassigned) [Example 55, (S) or (R)-2-(1-(2-ethyl-6-(1-methyl-5-((2-oxo-5-propylpyridin-1(2H)-yl)methyl)-1H-1,2,3-triazol-4-yl)pyridin-3-yl)-6-oxopiperidin-3-yl)acetic acid] |
| > 5000 nM | CCc1nc(-c2nnn(C)c2COc2nccc(C3CCC3)n2)ccc1N1CC(CC(=O)O)CCC1=O (single isomer, unassigned) [Example 91, (R) or (S)-2-(1-(6-(5-(((4-cyclobutylpyrimidin-2-yl)oxy)methyl)-1-methyl-1H-1,2,3-triazol-4-yl)-2-ethylpyridin-3-yl)-6-oxopiperidin-3-yl)acetic acid] |
| > 5000 nM | CCc1nc(-c2nnn(C)c2COc2nccc(C3CCC3)n2)ccc1N1CC(CC(=O)O)CCC1=O (single isomer, unassigned) [Example 92, (S) or (R)-2-(1-(6-(5-(((4-cyclobutylpyrimidin-2-yl)oxy)methyl)-1-methyl-1H-1,2,3-triazol-4-yl)-2-ethylpyridin-3-yl)-6-oxopiperidin-3-yl)acetic acid] |
| 100 to 500 nM | CCc1nc(-c2nnn(C)c2COc2nccc(C3CCC3)n2)ccc1N1CCCC(CC(=O)O)C1=O (single isomer, unassigned) [Example 93, (R) or (S)-2-(1-(6-(5-(((4-cyclobutylpyrimidin-2-yl)oxy)methyl)-1-methyl-1H-1,2,3-triazol-4-yl)-2-ethylpyridin-3-yl)-2-oxopiperidin-3-yl)acetic acid] |
| 500 to 5000 nM | CCc1nc(-c2nnn(C)c2COc2nccc(C3CCC3)n2)ccc1N1CCCC(CC(=O)O)C1=O (single isomer, unassigned) [Example 94, (S) or (R)-2-(1-(6-(5-(((4-cyclobutylpyrimidin-2-yl)oxy)methyl)-1-methyl-1H-1,2,3-triazol-4-yl)-2-ethylpyridin-3-yl)-2-oxopiperidin-3-yl)acetic acid] |
| < 100 nM | Cc1nc(-c2nnn(C)c2COc2nccc(C3CCC3)n2)ccc1CN1CC(C(=O)O)CC(F)(F)C1 (single isomer, unassigned) [Example 147, (S) or (R)-1-((6-(5-(((4-cyclobutylpyrimidin-2-yl)oxy)methyl)-1-methyl-1H-1,2,3-triazol-4-yl)-2-methylpyridin-3-yl)methyl)-5,5-difluoropiperidine-3-carboxylic acid] |
| < 100 nM | Cc1nc(-c2nnn(C)c2COc2nccc(C3CCC3)n2)ccc1CN1CC(C(=O)O)CC(F)(F)C1 (single isomer, unassigned) [Example 148, (R) or (S)-1-((6-(5-(((4-cyclobutylpyrimidin-2-yl)oxy)methyl)-1-methyl-1H-1,2,3-triazol-4-yl)-2-methylpyridin-3-yl)methyl)-5,5-difluoropiperidine-3-carboxylic acid] |
| 100 to 500 nM | CCCc1ccc(=O)n(Cc2c(-c3ccc(CN4CC(C(=O)O)CC(F)(F)C4)c(CC)n3)nnn2C)c1 (single isomer, unassigned) [Example 149, (S) or (R)-1-((2-ethyl-6-(1-methyl-5-((2-oxo-5-propylpyridin-1(2H)-yl)methyl)-1H-1,2,3-triazol-4-yl)pyridin-3-yl)methyl)-5,5-difluoropiperidine-3-carboxylic acid] |
| 100 to 500 nM | CCCc1ccc(=O)n(Cc2c(-c3ccc(CN4CC(C(=O)O)CC(F)(F)C4)c(CC)n3)nnn2C)c1 (single isomer, unassigned) [Example 150, (R) or (S)-1-((2-ethyl-6-(1-methyl-5-((2-oxo-5-propylpyridin-1(2H)-yl)methyl)-1H-1,2,3-triazol-4-yl)pyridin-3-yl)methyl)-5,5-difluoropiperidine-3-carboxylic acid] |
| < 100 nM | CCc1nc(-c2nnn(C)c2COc2nccc(C3CCC3)n2)ccc1CN1CC(C(=O)O)CC(F)(F)C1 (single isomer, unassigned) [Example 152, (S) or (R)-1-((6-(5-(((4-cyclobutylpyrimidin-2-yl)oxy)methyl)-1-methyl-1H-1,2,3-triazol-4-yl)-2-ethylpyridin-3-yl)methyl)-5,5-difluoropiperidine-3-carboxylic acid] |
| 500 to 5000 nM | CCc1nc(-c2nnn(C)c2COc2nccc(C3CCC3)n2)ccc1CN1CC(C(=O)O)CC(F)(F)C1 (single isomer, unassigned) [Example 153, (R) or (S)-1-((6-(5-(((4-cyclobutylpyrimidin-2-yl)oxy)methyl)-1-methyl-1H-1,2,3-triazol-4-yl)-2-ethylpyridin-3-yl)methyl)-5,5-difluoropiperidine-3-carboxylic acid] |
| 100 to 500 nM | CCc1nc(-c2nnn(C)c2Cn2cc(CC(C)C)ccc2=O)ccc1CN1CC(C(=O)O)CC(F)(F)C1 (single isomer, unassigned) [Example 154, (S) or (R)-1-((2-ethyl-6-(5-((5-isobutyl-2-oxopyridin-1(2H)-yl)methyl)-1-methyl-1H-1,2,3-triazol-4-yl)pyridin-3-yl)methyl)-5,5-difluoropiperidine-3-carboxylic acid] |
| 500 to 5000 nM | CCc1nc(-c2nnn(C)c2Cn2cc(CC(C)C)ccc2=O)ccc1CN1CC(C(=O)O)CC(F)(F)C1 (single isomer, unassigned) [Example 155, (R) or (S)-1-((2-ethyl-6-(5-((5-isobutyl-2-oxopyridin-1(2H)-yl)methyl)-1-methyl-1H-1,2,3-triazol-4-yl)pyridin-3-yl)methyl)-5,5-difluoropiperidine-3-carboxylic acid] |
| 100 to 500 nM | CCCc1ccc(=O)n(Cc2c(-c3ccc(CN4CC(C(=O)O)CC(F)(F)C4)c(C)n3)nnn2C)c1 (single isomer, unassigned) [Example 156, (S) or (R)-5,5-difluoro-1-((2-methyl-6-(1-methyl-5-((2-oxo-5-propylpyridin-1(2H)-yl)methyl)-1H-1,2,3-triazol-4-yl)pyridin-3-yl)methyl)piperidine-3-carboxylic acid] |
| 500 to 5000 nM | CCCc1ccc(=O)n(Cc2c(-c3ccc(CN4CC(C(=O)O)CC(F)(F)C4)c(C)n3)nnn2C)c1 (single isomer, unassigned) [Example 157, (R) or (S)-5,5-difluoro-1-((2-methyl-6-(1-methyl-5-((2-oxo-5-propylpyridin-1(2H)-yl)methyl)-1H-1,2,3-triazol-4-yl)pyridin-3-yl)methyl)piperidine-3-carboxylic acid] |
| > 5000 nM | CCCc1cnn(Cc2c(-c3ccc(CN4CC(C(=O)O)CC(F)(F)C4)c(C)n3)nnn2C)c(=O)c1 (single isomer, unassigned) [Example 158, (S) or (R)-5,5-difluoro-1-((2-methyl-6-(1-methyl-5-((6-oxo-4-propylpyridazin-1(6H)-yl)methyl)-1H-1,2,3-triazol-4-yl)pyridin-3-yl)methyl)piperidine-3-carboxylic acid] |
| > 5000 nM | CCCc1cnn(Cc2c(-c3ccc(CN4CC(C(=O)O)CC(F)(F)C4)c(C)n3)nnn2C)c(=O)c1 (single isomer, unassigned) [Example 159, (R) or (S)-5,5-difluoro-1-((2-methyl-6-(1-methyl-5-((6-oxo-4-propylpyridazin-1(6H)-yl)methyl)-1H-1,2,3-triazol-4-yl)pyridin-3-yl)methyl)piperidine-3-carboxylic acid] |
| 500 to 5000 nM | CCCc1ccc(=O)n(Cc2c(-c3ncc(CN4CC(C(=O)O)CC(F)(F)C4)c(CC)n3)cnn2C)c1 (single isomer, unassigned) [Example 160, (S) or (R)-1-((4-ethyl-2-(1-methyl-5-((2-oxo-5-propylpyridin-1(2H)-yl)methyl)-1H-pyrazol-4-yl)pyrimidin-5-yl)methyl)-5,5-difluoropiperidine-3-carboxylic acid] |
